Patent US8415469B2, “Compounds and methods for kinase modulation, and indications therefor” (Plexxikon Inc., priority 2005, dated 2013)

Experiments:
Type in all cases: biochemical
Jnk2 = target: T1, Jnk2 (Homo sapiens, UniProt P45984); assay: AlphaScreen kinase assay, Jnk2; settings: read-out: IC50, activity toward kinase Jnk2
T1 construct: purchased Roche Protein Expression Group (Indianapolis, IN)
Excerpt: AlphaScreen assay was used to screen additional kinases. The assay is similarly dependent on the phosphorylation of a peptide substrate. In this assay, an antibody that recognizes phosphorylated substrate is bound to an acceptor bead. The peptide substrate is attached to biotin, which binds to a donor head that contains streptavidin. Thus phosphorylated substrate is bound by antibody and streptavidin, bringing the donor and acceptor heads into close proximity when kinase is not inhibited. The donor produces singlet oxygen which results in emission from the acceptor when they are in close proximity. Conversely, when kinase is inhibited, the donor and acceptor beads are not associated and the emission from the acceptor is reduced.
AlphaScreen assays were done using compounds dissolved in DMSO to a concentration of 20 mM. The compounds were diluted accordingly to the desired final concentrations in each sample well, using 1:3 serial dilution for a total of 8 concentration points.

Jnk1 = target: T2, Jnk1 (Homo sapiens, UniProt P45983); assay: AlphaScreen kinase assay, Jnk1; settings: read-out: IC50, activity toward kinase Jnk1
T2 construct: purchased Upstate Biotechnology
T2 sequence (P45983 whole entry): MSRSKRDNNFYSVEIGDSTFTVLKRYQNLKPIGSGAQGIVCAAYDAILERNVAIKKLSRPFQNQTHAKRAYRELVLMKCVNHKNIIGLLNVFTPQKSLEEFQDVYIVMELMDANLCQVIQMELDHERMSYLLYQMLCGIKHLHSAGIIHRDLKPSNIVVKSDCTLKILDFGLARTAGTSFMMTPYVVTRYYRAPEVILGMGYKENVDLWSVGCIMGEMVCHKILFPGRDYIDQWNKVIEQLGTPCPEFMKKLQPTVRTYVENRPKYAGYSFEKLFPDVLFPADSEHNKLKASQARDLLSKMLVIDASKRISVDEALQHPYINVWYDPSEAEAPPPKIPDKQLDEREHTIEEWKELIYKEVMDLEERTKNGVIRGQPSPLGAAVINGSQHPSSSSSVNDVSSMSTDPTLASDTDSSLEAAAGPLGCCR

Kit = target: T3, Kit (Homo sapiens, UniProt P10721); assay: AlphaScreen kinase assay, Kit; settings: read-out: IC50, activity toward kinase Kit
T3 construct: P1332.N6 BI PTP KIT M552-K948-X COD; His6 (N); made in house; host or cells: E. coli (PTP1B co-expressed)
T3 sequence (P10721 with tags, fused parts or gaps): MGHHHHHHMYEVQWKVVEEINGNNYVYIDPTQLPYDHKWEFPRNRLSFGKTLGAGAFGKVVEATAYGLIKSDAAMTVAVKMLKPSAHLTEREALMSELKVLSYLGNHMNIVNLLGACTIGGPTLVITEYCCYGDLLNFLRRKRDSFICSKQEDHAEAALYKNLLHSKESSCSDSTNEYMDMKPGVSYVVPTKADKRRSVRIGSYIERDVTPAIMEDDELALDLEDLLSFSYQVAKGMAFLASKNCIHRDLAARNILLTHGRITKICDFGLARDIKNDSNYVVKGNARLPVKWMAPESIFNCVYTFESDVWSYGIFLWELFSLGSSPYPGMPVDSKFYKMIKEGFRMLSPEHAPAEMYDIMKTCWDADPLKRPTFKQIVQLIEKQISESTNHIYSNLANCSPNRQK

Fms = target: T4, Fms (Homo sapiens, UniProt P07333); assay: AlphaScreen kinase assay, Fms; settings: read-out: IC50, activity toward kinase Fms
T4 construct: purchased Upstate Biotechnology
T4 sequence (P07333 20-972): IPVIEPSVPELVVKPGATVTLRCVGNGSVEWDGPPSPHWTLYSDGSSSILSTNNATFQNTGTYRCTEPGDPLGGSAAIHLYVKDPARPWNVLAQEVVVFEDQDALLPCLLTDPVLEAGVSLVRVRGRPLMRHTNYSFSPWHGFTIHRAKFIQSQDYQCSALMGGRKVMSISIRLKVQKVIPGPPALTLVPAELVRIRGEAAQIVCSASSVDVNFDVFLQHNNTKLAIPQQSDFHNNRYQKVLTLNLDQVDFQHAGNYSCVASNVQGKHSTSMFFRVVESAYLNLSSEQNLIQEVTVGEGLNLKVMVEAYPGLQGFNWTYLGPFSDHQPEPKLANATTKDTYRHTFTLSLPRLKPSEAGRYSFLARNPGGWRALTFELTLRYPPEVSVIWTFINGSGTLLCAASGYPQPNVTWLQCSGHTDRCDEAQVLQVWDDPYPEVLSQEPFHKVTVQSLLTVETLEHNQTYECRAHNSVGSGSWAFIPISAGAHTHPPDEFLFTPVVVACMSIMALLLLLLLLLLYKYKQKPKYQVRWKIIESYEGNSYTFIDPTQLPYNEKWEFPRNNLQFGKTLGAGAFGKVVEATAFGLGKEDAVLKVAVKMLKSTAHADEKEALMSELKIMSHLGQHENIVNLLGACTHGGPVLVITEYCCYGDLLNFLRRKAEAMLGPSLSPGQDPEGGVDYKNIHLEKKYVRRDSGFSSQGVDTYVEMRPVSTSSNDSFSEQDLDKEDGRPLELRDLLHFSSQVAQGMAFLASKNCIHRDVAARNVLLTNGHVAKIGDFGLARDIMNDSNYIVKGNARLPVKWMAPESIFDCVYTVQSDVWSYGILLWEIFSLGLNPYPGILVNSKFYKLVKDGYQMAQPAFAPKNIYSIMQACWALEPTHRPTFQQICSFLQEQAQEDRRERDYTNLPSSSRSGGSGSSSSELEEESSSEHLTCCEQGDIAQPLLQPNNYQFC

c-Raf-1 = target: T5, c-Raf-1 (Homo sapiens, UniProt P04049); assay: AlphaScreen kinase assay, c-Raf-1; settings: read-out: IC50, activity toward kinase c-Raf-1
T5 construct: purchased Upstate Biotechnology
T5 sequence (P04049 whole entry): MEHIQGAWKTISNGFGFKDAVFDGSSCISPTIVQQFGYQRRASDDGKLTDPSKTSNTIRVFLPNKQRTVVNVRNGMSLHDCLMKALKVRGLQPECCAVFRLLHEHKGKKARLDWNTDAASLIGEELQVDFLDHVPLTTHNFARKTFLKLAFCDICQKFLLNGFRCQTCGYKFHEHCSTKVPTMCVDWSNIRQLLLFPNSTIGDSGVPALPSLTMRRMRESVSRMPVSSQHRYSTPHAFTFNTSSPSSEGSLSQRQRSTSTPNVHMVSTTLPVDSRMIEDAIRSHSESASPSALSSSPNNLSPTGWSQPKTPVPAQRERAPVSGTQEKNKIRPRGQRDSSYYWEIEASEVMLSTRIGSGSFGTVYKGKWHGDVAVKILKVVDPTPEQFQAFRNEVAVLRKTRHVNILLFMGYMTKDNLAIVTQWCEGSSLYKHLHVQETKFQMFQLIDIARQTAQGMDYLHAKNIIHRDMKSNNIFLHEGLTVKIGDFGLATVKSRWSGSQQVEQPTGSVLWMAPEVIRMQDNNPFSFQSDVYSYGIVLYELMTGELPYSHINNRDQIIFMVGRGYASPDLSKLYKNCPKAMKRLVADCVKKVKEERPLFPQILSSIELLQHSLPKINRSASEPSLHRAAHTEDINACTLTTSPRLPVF

Ret = target: T6, Ret (Homo sapiens, UniProt P07949); assay: AlphaScreen kinase assay, Ret; settings: read-out: IC50, activity toward kinase Ret
T6 construct: P1378.pET-SF BI-PTP RET H661-R1012 HIS; made in house
T6 sequence (P07949 with tags, fused parts or gaps): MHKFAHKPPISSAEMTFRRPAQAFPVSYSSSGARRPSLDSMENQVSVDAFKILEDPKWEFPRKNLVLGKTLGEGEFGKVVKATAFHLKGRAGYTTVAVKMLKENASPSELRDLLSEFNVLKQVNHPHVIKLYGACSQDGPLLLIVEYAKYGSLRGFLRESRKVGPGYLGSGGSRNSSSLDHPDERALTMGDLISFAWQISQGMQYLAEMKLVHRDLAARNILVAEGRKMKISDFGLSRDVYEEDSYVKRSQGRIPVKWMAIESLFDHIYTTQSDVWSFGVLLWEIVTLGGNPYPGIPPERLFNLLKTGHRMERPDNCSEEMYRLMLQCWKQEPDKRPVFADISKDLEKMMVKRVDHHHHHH

B-Raf V600E = target: T7, B-Raf V600E (Homo sapiens, UniProt P15056, V600E); assay: AlphaScreen kinase assay, B-Raf V600E; settings: read-out: IC50, activity toward kinase B-Raf V600E
T7 construct: P4254. pFastBacBD-CDC37 BRAF D437-K722-X, V600E; His6 with pFastBac HT leader (TEV site) (N); made in house; host or cells: Sf9 (baculovirus; chaperone CDC37 co-expressed)
T7 sequence (P15056 with tags, fused parts or gaps V600E): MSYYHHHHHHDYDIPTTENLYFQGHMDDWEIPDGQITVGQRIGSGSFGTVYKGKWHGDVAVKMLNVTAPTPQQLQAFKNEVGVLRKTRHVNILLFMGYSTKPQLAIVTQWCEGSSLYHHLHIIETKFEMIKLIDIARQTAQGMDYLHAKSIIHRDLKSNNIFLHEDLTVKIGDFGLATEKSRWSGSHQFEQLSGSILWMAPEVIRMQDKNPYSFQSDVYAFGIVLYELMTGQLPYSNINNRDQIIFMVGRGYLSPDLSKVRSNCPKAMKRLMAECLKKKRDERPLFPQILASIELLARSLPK

FGFR1 = target: T8, FGFR1 (Homo sapiens, UniProt P11362, C488A/C584S); assay: AlphaScreen kinase assay, FGFR1; settings: read-out: IC50, activity toward kinase FGFR
T8 construct: P1351.pET N6 BI-PTP FGFR A458-E765-X C488A, C584S; made in house; host or cells: E. coli (PTP1B co-expressed)
T8 sequence (P11362 458-765 C488A/C584S): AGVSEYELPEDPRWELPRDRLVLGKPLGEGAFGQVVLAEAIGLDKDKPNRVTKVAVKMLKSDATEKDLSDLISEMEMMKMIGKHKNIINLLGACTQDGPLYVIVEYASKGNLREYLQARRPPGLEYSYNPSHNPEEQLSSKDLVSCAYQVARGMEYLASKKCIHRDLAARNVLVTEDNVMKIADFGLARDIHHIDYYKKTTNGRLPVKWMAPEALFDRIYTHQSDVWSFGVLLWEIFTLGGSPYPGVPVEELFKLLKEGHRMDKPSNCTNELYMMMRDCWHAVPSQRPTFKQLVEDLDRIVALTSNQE

Jnk3 = target: T9, Jnk3 (Homo sapiens, UniProt P53779); assay: AlphaScreen kinase assay, Jnk3; settings: read-out: IC50, activity toward kinase Jnk3
T9 construct: purchased Upstate Biotechnology
T9 sequence (P53779 whole entry): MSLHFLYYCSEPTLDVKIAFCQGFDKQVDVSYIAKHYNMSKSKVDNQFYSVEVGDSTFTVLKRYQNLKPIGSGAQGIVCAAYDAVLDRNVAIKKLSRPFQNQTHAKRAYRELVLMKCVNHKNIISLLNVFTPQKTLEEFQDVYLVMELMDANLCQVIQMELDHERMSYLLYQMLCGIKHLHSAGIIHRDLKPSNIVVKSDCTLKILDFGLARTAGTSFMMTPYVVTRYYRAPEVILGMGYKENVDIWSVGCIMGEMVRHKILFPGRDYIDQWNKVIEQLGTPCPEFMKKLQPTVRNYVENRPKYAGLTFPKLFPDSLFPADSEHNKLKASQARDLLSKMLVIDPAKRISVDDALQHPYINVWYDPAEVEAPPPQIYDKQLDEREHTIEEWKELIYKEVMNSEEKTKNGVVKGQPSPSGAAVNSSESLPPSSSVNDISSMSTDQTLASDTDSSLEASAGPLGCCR

B-Raf = target: T10, B-Raf (Homo sapiens, UniProt P15056); assay: AlphaScreen kinase assay, B-Raf; settings: read-out: IC50, activity toward kinase B-Raf
T10 construct: purchased Upstate Biotechnology
T10 sequence (P15056 whole entry): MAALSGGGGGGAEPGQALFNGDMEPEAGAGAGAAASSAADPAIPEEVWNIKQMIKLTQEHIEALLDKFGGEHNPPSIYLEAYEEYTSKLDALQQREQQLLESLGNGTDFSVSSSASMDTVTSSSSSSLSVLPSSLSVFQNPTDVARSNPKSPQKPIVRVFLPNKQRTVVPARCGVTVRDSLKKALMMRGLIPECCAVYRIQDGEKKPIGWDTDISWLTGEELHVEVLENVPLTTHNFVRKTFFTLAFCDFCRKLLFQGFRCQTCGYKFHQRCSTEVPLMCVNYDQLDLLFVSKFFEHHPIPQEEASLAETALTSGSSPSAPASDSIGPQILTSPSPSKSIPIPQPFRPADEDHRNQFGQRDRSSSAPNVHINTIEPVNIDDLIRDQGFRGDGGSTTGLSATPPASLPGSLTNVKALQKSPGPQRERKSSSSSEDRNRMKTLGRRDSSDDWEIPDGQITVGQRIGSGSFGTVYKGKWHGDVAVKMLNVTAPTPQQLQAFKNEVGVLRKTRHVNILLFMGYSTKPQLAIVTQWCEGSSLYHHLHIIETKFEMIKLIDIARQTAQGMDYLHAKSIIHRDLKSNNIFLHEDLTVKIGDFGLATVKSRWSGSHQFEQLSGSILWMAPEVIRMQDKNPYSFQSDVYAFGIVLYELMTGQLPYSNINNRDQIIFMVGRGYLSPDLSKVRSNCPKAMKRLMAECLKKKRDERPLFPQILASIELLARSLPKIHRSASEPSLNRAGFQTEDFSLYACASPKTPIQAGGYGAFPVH

Flt1 = target: T11, Flt1 (Homo sapiens, UniProt P17948); assay: AlphaScreen kinase assay, Flt1; settings: read-out: IC50, activity toward kinase Flt1
T11 construct: P1826.pETN6 BI-PTP FLT1 M799-D1165-X WT; His6 (N); made in house; host or cells: E. coli (PTP1B co-expressed)
T11 sequence (P17948 with tags, fused parts or gaps): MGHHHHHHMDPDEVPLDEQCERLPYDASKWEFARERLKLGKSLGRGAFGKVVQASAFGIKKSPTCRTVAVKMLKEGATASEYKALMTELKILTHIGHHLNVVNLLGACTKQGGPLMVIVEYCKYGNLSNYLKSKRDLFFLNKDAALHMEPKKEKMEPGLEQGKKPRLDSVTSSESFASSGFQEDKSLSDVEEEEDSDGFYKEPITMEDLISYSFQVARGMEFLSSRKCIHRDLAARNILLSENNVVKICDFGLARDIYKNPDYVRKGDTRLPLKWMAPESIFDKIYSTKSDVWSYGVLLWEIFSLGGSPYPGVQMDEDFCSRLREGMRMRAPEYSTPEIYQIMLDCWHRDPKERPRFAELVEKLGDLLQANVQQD

T1 sequence (P45984 whole entry): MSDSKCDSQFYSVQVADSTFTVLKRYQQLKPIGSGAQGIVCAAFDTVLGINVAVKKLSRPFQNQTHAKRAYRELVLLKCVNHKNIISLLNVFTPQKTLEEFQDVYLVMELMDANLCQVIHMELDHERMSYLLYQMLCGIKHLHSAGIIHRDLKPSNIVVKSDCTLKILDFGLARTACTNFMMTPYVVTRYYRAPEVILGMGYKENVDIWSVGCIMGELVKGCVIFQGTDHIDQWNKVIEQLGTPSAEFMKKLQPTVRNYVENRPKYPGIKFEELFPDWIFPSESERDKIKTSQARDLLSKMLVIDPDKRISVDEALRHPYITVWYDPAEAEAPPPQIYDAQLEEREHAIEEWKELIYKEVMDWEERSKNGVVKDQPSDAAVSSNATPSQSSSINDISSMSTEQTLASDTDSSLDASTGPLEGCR

Row | Structure (SMILES) | IC50 (Jnk2) [µM] | IC50 (Jnk1) [µM] | IC50 (Kit) [µM] | IC50 (Fms) [µM] | IC50 (c-Raf-1) [µM] | IC50 (Ret) [µM] | IC50 (B-Raf V600E) [µM] | IC50 (FGFR1) [µM] | IC50 (Jnk3) [µM] | IC50 (B-Raf) [µM] | IC50 (Flt1) [µM]
1 | Cc1c(NS(C)(=O)=O)cccc1C(=O)c1c[nH]c2ncc(-c3cccnc3)cc12 [Compound P-0121, N-[2-Methyl-3-(5-pyridin-3-yl-1H-pyrrolo[2,3-b]pyridine-3-carbonyl)-phenyl]-methanesulfonamide] | ≤ 10 | ≤ 10 | ≤ 10 | ≤ 10 | ≤ 10 | ≤ 10 | ≤ 10 | ≤ 10 |  |  | 
2 | Cn1cccc1-c1nc(-c2ccnc3[nH]ccc23)no1 [Compound P-0285] | ≤ 10 | ≤ 10 |  |  |  |  |  |  | ≤ 10 |  | 
3 | O=C(c1cccc(O)c1F)c1c[nH]c2ncc(-c3cncnc3)cc12 [Compound P-0744, (2-fluoro-3-hydroxy-phenyl)-(5-pyrimidin-5-yl-1H-pyrrolo[2,3-b]pyridin-3-yl)-methanone] | ≤ 10 |  |  |  | ≤ 10 | ≤ 10 | ≤ 10 | ≤ 10 |  | ≤ 10 | 
4 | CCCCNC(=O)n1ccc2c(C(=O)c3c[nH]c4ncc(-c5ccc(Cl)cc5)cc34)cccc21 [Compound P-1602, 4-[5-(4-Chloro-phenyl)-1H-pyrrolo[2,3-b]pyridine-3-carbonyl]-indole-1-carboxylic acid butylamide] | ≤ 10 | ≤ 10 |  | ≤ 10 |  |  | ≤ 10 |  |  | ≤ 10 | ≤ 10
5 | O=C(c1c[nH]c2ncc(-c3ccccc3)cc12)c1cccc2c1ccn2C(=O)NCc1ccccc1 [Compound P-1611, 4-(5-Phenyl-1H-pyrrolo[2,3-b]pyridine-3-carbonyl)-indole-1-carboxylic acid benzylamide] | ≤ 10 | ≤ 10 |  | ≤ 10 |  |  | ≤ 10 |  | ≤ 10 |  | 
6 | CCCCNC(=O)Nc1ccc(F)c(C(=O)c2c[nH]c3ncc(-c4cccc(S(C)(=O)=O)c4)cc23)c1 [Compound P-1627, 1-Butyl-3-{4-fluoro-3-[5-(3-methanesulfonyl-phenyl)-1H-pyrrolo[2,3-b]pyridine-3-carbonyl]-phenyl}-urea] | ≤ 10 | ≤ 10 |  | ≤ 10 |  |  | ≤ 10 |  |  | ≤ 10 | 
7 | CCCCNC(=O)n1ccc2c(Cc3c[nH]c4ncc(-c5cccnc5)cc34)cccc21 [Compound P-1656, 4-(5-pyridin-3-yl-1H-pyrrolo[2,3-b]pyridin-3-ylmethyl)-indole-1-carboxylic acid butylamide] | ≤ 10 | ≤ 10 |  | ≤ 10 |  |  | ≤ 10 |  |  | ≤ 10 | 
8 | COc1ccc(NC(=O)Nc2cccc(C(=O)c3c[nH]c4ncc(-c5cccnc5)cc34)c2)cc1 [Compound P-1723, 1-(4-Methoxy-phenyl)-3-[3-(5-pyridin-3-yl-1H-pyrrolo[2,3-b]pyridine-3-carbonyl)-phenyl]-urea] | ≤ 10 | ≤ 10 |  | ≤ 10 |  |  | ≤ 10 |  |  | ≤ 10 | 
9 | O=C(Nc1cccc(C(=O)c2c[nH]c3ncc(-c4cccnc4)cc23)c1)Nc1ccc(C(F)(F)F)cc1Cl [Compound P-1727, 1-(2-Chloro-4-trifluoromethyl-phenyl)-3-[3-(5-pyridin-3-yl-1H-pyrrolo[2,3-b]pyridine-3-carbonyl)-phenyl]-urea] | ≤ 10 | ≤ 10 |  | ≤ 10 |  |  | ≤ 10 |  |  | ≤ 10 | 
10 | O=C(Nc1cccc(F)c1)Nc1cccc(C(=O)c2c[nH]c3ncc(-c4cccnc4)cc23)c1 [Compound P-1730, 1-(3-Fluoro-phenyl)-3-[3-(5-pyridin-3-yl-1H-pyrrolo[2,3-b]pyridine-3-carbonyl)-phenyl]-urea] | ≤ 10 | ≤ 10 |  | ≤ 10 |  |  | ≤ 10 |  |  | ≤ 10 | 
11 | O=C(Nc1ccc(C(F)(F)F)cc1)Nc1cccc(C(=O)c2c[nH]c3ncc(-c4cccnc4)cc23)c1 [Compound P-1731, 1-[3-(5-Pyridin-3-yl-1H-pyrrolo[2,3-b]pyridine-3-carbonyl)-phenyl]-3-(4-trifluoromethyl-phenyl)-urea] | ≤ 10 | ≤ 10 |  | ≤ 10 |  |  | ≤ 10 |  |  | ≤ 10 | 

Results, then the compound that gave them:

Row | IC50 (Jnk2) [µM] | IC50 (Jnk1) [µM] | IC50 (Kit) [µM] | IC50 (Fms) [µM] | IC50 (c-Raf-1) [µM] | IC50 (Ret) [µM] | IC50 (B-Raf V600E) [µM] | IC50 (FGFR1) [µM] | IC50 (Jnk3) [µM] | IC50 (B-Raf) [µM] | IC50 (Flt1) [µM] | Structure (SMILES)
12 | ≤ 10 | ≤ 10 |  | ≤ 10 |  |  | ≤ 10 |  |  | ≤ 10 |  | O=C(Nc1cccc(C(=O)c2c[nH]c3ncc(-c4cccnc4)cc23)c1)Nc1ccc(Cl)c(C(F)(F)F)c1 [Compound P-1751, 1-(4-Chloro-3-trifluoromethyl-phenyl)-3-[3-(5-pyridin-3-yl-1H-pyrrolo[2,3-b]pyridine-3-carbonyl)-phenyl]-urea]
13 | ≤ 10 |  |  | ≤ 10 |  |  | ≤ 10 |  | ≤ 10 | ≤ 10 |  | O=C(Nc1cccc(C(=O)c2c[nH]c3ncc(-c4ccc(F)cc4)cc23)c1)Nc1ccc(C(F)(F)F)cc1Cl [Compound P-1753, 1-(2-Chloro-4-trifluoromethyl-phenyl)-3-{3-[5-(4-fluoro-phenyl)-1H-pyrrolo[2,3-b]pyridine-3-carbonyl]-phenyl}-urea]
14 | ≤ 10 | ≤ 10 |  | ≤ 10 |  |  | ≤ 10 |  |  | ≤ 10 |  | O=C(Nc1cccc(C(=O)c2c[nH]c3ncc(-c4cccnc4)cc23)c1)Nc1cccc(C(F)(F)F)c1 [Compound P-1755, 1-[3-(5-Pyridin-3-yl-1H-pyrrolo[2,3-b]pyridine-3-carbonyl)-phenyl]-3-(3-trifluoromethyl-phenyl)-urea]
15 | ≤ 10 | ≤ 10 |  | ≤ 10 |  |  | ≤ 10 |  |  | ≤ 10 |  | O=C(Nc1ccncc1)Nc1cccc(C(=O)c2c[nH]c3ncccc23)c1 [Compound P-1760, 1-Pyridin-4-yl-3-[3-(1H-pyrrolo[2,3-b]pyridine-3-carbonyl)-phenyl]-urea]
16 | ≤ 10 | ≤ 10 |  | ≤ 10 |  |  | ≤ 10 |  |  | ≤ 10 |  | COc1cc(NC(=O)Nc2cccc(C(=O)c3c[nH]c4ncc(-c5cccnc5)cc34)c2)cc(C(F)(F)F)c1 [Compound P-1778, 1-(3-Methoxy-5-trifluoromethyl-phenyl)-3-[3-(5-pyridin-3-yl-1H-pyrrolo[2,3-b]pyridine-3-carbonyl)-phenyl]-urea]
17 | ≤ 10 | ≤ 10 |  | ≤ 10 |  |  | ≤ 10 |  |  | ≤ 10 |  | COc1ccc(NC(=O)Nc2cccc(C(=O)c3c[nH]c4ncc(-c5cccnc5)cc34)c2)cn1 [Compound P-1779, 1-(6-Methoxy-pyridin-3-yl)-3-[3-(5-pyridin-3-yl-1H-pyrrolo[2,3-b]pyridine-3-carbonyl)-phenyl]-urea]
